Reference: ChEMBL document CHEMBL3507680, “University of Dundee, Gates Library screen for HepG2 cell viability”

Test: Human HepG2 cell viability assay in 384 well format
Type: toxicity, cell-based
Parameters: dose 125 nL, time 70.5 hour; concentration not given beside the values
Conditions: HepG2 cells, read-out: Inhibition

Row | SMILES | cytotoxicity at 70.5 h [%]
1 | CCS(=O)(=O)CC(=O)Nc1ccc2oc(C3CC3)nc2c1 | -0.903
2 | c1ncn(CC2CN(CC3CCCCC3)CCO2)n1 (stereo not drawn) | 2.16
3 | O=C(NCc1ccc(Br)c(F)c1)Nc1cn[nH]c1 | -22.7
4 | c1cncc(C[C@@H]2CC[C@H](CN3CCCOCC3)O2)c1 | -10.6
5 | O=C1CCCCN1CC(=O)N1CCCC(c2ccccc2)C1 (stereo not drawn) | -20.6
6 | Cc1cc(F)ccc1N1CCCC(NC2CCSCC2)C1=O (stereo not drawn) | -2.24
7 | O=C(NCCCN1CCOCC1)c1ccc(-c2ccccc2)[nH]c1=O | -5.86
8 | CN(C(=O)C1CCC1)C1CCN(c2ccccc2Cl)C1=O (stereo not drawn) | -26.5
9 | CC(C)CCN(C(=O)c1nc(S(C)(=O)=O)n2ccccc12)C1CC1 | -1.14
10 | Cc1ccsc1CN(C)CCc1scnc1C | 14.4
11 | COc1cccc(COCC(=O)NC(C(N)=O)c2ccccc2F)c1 (stereo not drawn) | 12
12 | Cc1cnn(CC2CCCN2Cc2cc(=O)n3c(C)csc3n2)c1 (stereo not drawn) | -4.63
13 | Cc1ccc([C@@H]2CN(C(=O)c3ccc[nH]3)C[C@H]2NC(=O)C2CC2)cc1 | -8.09
14 | Cc1c(Br)c(C(F)(F)F)nn1C(C)C(=O)O (stereo not drawn) | -11.2
15 | COc1ccc2c(c1)nc1n2[C@@H](CNCc2nccs2)COC1 | -13.7
16 | CC(Cn1cccn1)NC(=O)N1CCC(NS(C)(=O)=O)CC1 (stereo not drawn) | -17.2
17 | O=C(CN1CC(c2nc(-c3ccco3)no2)C1)NCc1ccc(F)cc1 | 0.546
18 | Cc1ccc(-c2nc(C(=O)N(C)CC(=O)N3CCCC3)cs2)c(C)c1 | -4.38
19 | CCc1c(NCc2ccc(F)cc2)cnn1CC(C)C | -6.17
20 | CCC(C)N(Cc1cccnc1)Cc1ccc2c(c1)OCCO2 (stereo not drawn) | 3.73
21 | Cc1ccccc1CSc1nc(=O)n(CCO)c2c1CCC2 | -9.33
22 | Cc1cc(N2CCC(n3cc(CCCO)nn3)CC2)ccn1 | -9.19
23 | CC(C)c1csc(C2CCCN(C(=O)c3ccc(=O)n(C)c3)C2)n1 (stereo not drawn) | -0.564

Row | SMILES | cytotoxicity at 70.5 h [%]
24 | CC(C)(C)c1cnc(CN2CCC[C@H]2CO)o1 | 0.665
25 | CC(=O)c1c(F)cccc1N1CCC(C(N)=O)CC1 | -1.92
26 | O=C(c1ccco1)N1CCC(n2cc(-c3ccsc3)nn2)CC1 | -5.81
27 | COc1c(CNCc2ccc(CN3CCOCC3)cc2)c(C)nn1C | 5.61
28 | CC(C)N(C)[C@@H]1CCN(C(=O)[C@H]2CCCO2)[C@H]1Cc1cnn(C)c1 | -4.8
29 | Cc1ccccc1C(=O)NCC(O)c1ccc(F)c(F)c1 (stereo not drawn) | -5.82
30 | Cc1oncc1C(=O)N[C@@H]1CN(Cc2ccoc2)C[C@@H]2CCCO[C@@H]21 | 2.7
31 | Cc1ccc(-c2noc(Cn3nc(C(N)=O)ccc3=O)n2)cc1 | -8.12
32 | CNC(=O)CCN1CCCCCC1c1ccc(C)o1 (stereo not drawn) | 13.3
33 | COCC(=O)N1CCCN(C(=O)C2Cc3ccccc3CN2C)CC1 (stereo not drawn) | 11.5
34 | OCCC1CN(c2nc(-c3ccncc3)nc3c2CCNCC3)CCO1 (stereo not drawn) | 2.55
35 | CCN1CCn2c(-c3cccc(F)c3)cnc2C12CCN(C(C)=O)CC2 | 2.55
36 | CCc1cnc(CN(C(C)=O)C2CCN(CCc3ccncc3)C2)o1 (stereo not drawn) | -1.81
37 | CC(SCCC(=O)NC(N)=O)c1c(F)cccc1F (stereo not drawn) | -10.5
38 | Cc1ccc(C(=O)N2CCN(CCC(C)(C)C)CC2)c(=O)[nH]1 | -6.54
39 | COCc1nc(CN2CC(C)(c3ccccc3)CCC2=O)no1 (stereo not drawn) | -6.99
40 | O=C(COc1ccc2c(c1)CCC2)NS(=O)(=O)c1cccnc1 | -10.3
41 | CCOC(C)C(=O)Nc1ccc(Sc2nncn2C)c(Cl)c1 (stereo not drawn) | -4.37
42 | O=C(CCNc1ncccn1)NCc1ccc(Br)s1 | -11.3
43 | CC(=O)N1C[C@@H]2CN(Cc3cccnc3)CCO[C@@H]2C1 | -11.3
44 | CCC1CN(CCNC(C)=O)CCN1CCOC (stereo not drawn) | 2.28
45 | O=C(c1ccc(F)cc1)N1C[C@H]2CCC[C@@]2(COCc2ccncc2)C1 | -0.425
46 | COCC1CN(Cc2ccc(C)o2)Cc2nnn(C)c21 (stereo not drawn) | -0.755

Row | SMILES | cytotoxicity at 70.5 h [%]
47 | Cc1ccc(C(=O)NCC(O)c2ccc(F)c(F)c2)c(=O)[nH]1 (stereo not drawn) | -10.6
48 | O=C(O)Cn1ccc(=O)c2cc(Cl)ccc21 | -16.7
49 | CCOc1ccc(Cl)cc1C1CCCN1 (stereo not drawn) | -16.4
50 | CN(Cc1ccc(-n2cccn2)cc1)c1nc(N)nc2c1CCNCC2 | 12.6
51 | Cc1nc(C)c(CN2CCC(N(C)Cc3nnc(C4CC4)o3)C2)s1 (stereo not drawn) | -12.3
52 | CC(C)c1ccc(-n2nnc(C(=O)O)c2-c2ccccn2)cc1 | -24.1
53 | O=C1OCCN1CC(=O)N1C[C@H]2CC[C@@H]1CN(C(=O)c1cccnc1)C2 | -2.17
54 | NC(=O)c1cc2c(nc1N)CCN(C(=O)C1CCCCC1)C2 | 7.07
55 | COc1ccc(CN2C[C@H]3CCC[C@@H](CN(C)C4CC4)[C@H]3C2)cn1 | 10.8
56 | Cc1nc(CN2CCN(C(=O)C(C(C)C)n3cncn3)CC2)cs1 (stereo not drawn) | -1.55
57 | Cc1ccc(N(CC(=O)N2CCCCC2)C(=O)C2COCCO2)cc1 (stereo not drawn) | -2.98
58 | CO[C@@]1(C)C[C@@H](O)C12CCN(C(=O)C1(c3ccccc3F)CC1)CC2 | 9.4
59 | CC(C)NC(=O)c1cc2c([nH]c1=O)CC(c1cccs1)CC2=O (stereo not drawn) | 6.88
60 | CN(Cc1cc(Br)cn1C)C(=O)c1cscn1 | -0.963
61 | O=S(=O)(NCC1(O)CCOc2ccccc21)c1cccs1 (stereo not drawn) | 3.15
62 | O=C(c1cccnc1)N1CCC2(CNS(=O)(=O)c3cnccc3O2)C1 (stereo not drawn) | 17.8
63 | N#Cc1ccccc1NC(=O)C1CN(C(=O)c2ccc3c(c2)OCO3)C1 | -7
64 | O=c1ccc2c(n1Cc1ccncc1)CCN(C1CCOC1)CC2 (stereo not drawn) | 0.608
65 | CNC(=O)C1CC2(CCN(C(=O)c3csnn3)CC2)c2ccccc21 (stereo not drawn) | 0.474
66 | CCn1nnc2c1C(COCCN(C)C)CN(Cc1ccc(C)s1)C2 (stereo not drawn) | 3.05
67 | CC(C)(C)c1ncc(CNc2ccn(CCc3ccncc3)n2)s1 | -10.2
68 | CCC(=O)N1CCN(C(=O)NC2CCc3ccccc3C2)CC1 (stereo not drawn) | -4.1
69 | NC(=O)C1CCCN(S(=O)(=O)c2cnn(-c3ccccc3)c2)C1 (stereo not drawn) | -1.76

Row | SMILES | cytotoxicity at 70.5 h [%]
70 | CN(C)c1cc(C2CCCN2Cc2ccccc2OCC(=O)O)ccn1 (stereo not drawn) | -6.83
71 | CN(C)S(=O)(=O)N1C[C@H](Oc2cccnc2)[C@H]2OCCC[C@H]21 | 31.1
72 | Cc1cnnn1Cc1ncn2c1CN(Cc1cccs1)CCC2 | 4.51
73 | CC(C)C(=O)N1CCC2(CC1)NC(=O)[C@H]1CN(C(=O)N(C)C)C[C@H]12 | -11.8
74 | O=C(Cc1ccccc1O)Nc1ccc(N2CCCC2)nc1 | -10.3
75 | CC(C)(C)c1nnc(CN2CCC(c3cc4ccccc4[nH]3)CC2)o1 | 17.4
76 | Cc1ccc(C(=O)N2CC[C@]3(C[C@@H](OCc4ccccn4)CO3)C2)nc1 | 12.9
77 | CN(CC(=O)Nc1nc2c(s1)CCC2)C(=O)c1cccs1 | -12.8
78 | Cc1ncc(-c2ccccn2)c(CCNC(=O)C2CCCC2)n1 | 14.1
79 | CC(=O)N1CCN(Cc2nccs2)CC2(CC(=O)N(C)C2)C1 (stereo not drawn) | -11.2
80 | Cn1cccc1C(=O)NC(C)(C(N)=O)c1cccc(Cl)c1 (stereo not drawn) | -98.6
81 | Cn1ccnc1CN1CCC2(COCCN(S(=O)(=O)C3CC3)C2)C1 (stereo not drawn) | -10.6
82 | Cc1nc(CN2CCc3ncnc(C)c3CC2)cs1 | -6.23
83 | CCN(CC1CCCO1)C(=O)Nc1ccc(F)cc1OC (stereo not drawn) | -8.02
84 | Cc1cnc(CNCc2cnc(-c3ccccc3C)s2)cn1 | -1.03
85 | CN1C(=O)C(c2ccccc2)CC12CCN(CCN)CC2 (stereo not drawn) | -5.41
86 | O=C(CNc1cccc(S(=O)(=O)C(F)F)c1)NCc1ccco1 | 11.3
87 | CCS(=O)(=O)N1CCC2(CCC2NC(=O)c2ccn(C)c2)CC1 (stereo not drawn) | -7.91
88 | COCCC(=O)N1CCC(NC(=O)c2cscc2C)CC1 | 6.09
89 | CO[C@H]1CN(CC2CCOCC2)[C@@H]2CCCO[C@H]12 | -7.16
90 | CSCC(CCO)NC(=O)Nc1cccc(Br)c1C (stereo not drawn) | -21.2
91 | CCNC(=O)c1ccc(NC(=O)N(C)Cc2cccn2C)c(C)c1 | 5.27
92 | CNc1nc2c(c(C(=O)N3CCCC3)n1)CN(C(=O)c1cccs1)CC2 | 5.33

Row | SMILES | cytotoxicity at 70.5 h [%]
93 | Cc1cc(C)n(-c2cccc(NC(=O)N3CCC[C@@H]3CO)c2)n1 | -16
94 | Cc1ccccc1COCCOCn1c(C)cc(=O)[nH]c1=O | -4.1
95 | COCC1CN(c2ccc(Cl)cc2C#N)CCO1 (stereo not drawn) | -7.05
96 | COCC(=O)N1CCCC1c1ccnc(Nc2cnccn2)n1 (stereo not drawn) | -7.05
97 | Cc1ccc(CNC(=O)c2cc(NC(=O)C3CC3)n(C)n2)o1 | -7.15
98 | COc1ncccc1-c1nc(-c2ccccn2)nn1C1CCS(=O)(=O)C1 (stereo not drawn) | -7.2
99 | CC1CCN(C[C@H]2CN3CC[C@H]2C[C@@H]3CNC(=O)c2ccco2)CC1 | 19.1
100 | CNC(=O)c1ccc(C2CN(CC(=O)N(C)C)CCO2)nc1 (stereo not drawn) | -5.57
101 | CCn1ccnc1C1CCN(Cc2c(F)cccc2F)CC1 | 3.09
102 | Cc1nc(COC[C@H]2CCC[C@]23CN(CC2CC2)CCO3)cs1 | 18.4
103 | CN1CC(NC(=O)Cc2csc(C(C)(C)C)n2)CCC1=O (stereo not drawn) | 20.1
104 | O=C(CCc1cc2n(n1)CCCNC2)N1CCN(C2CCCC2)C(=O)C1 | -7.76
105 | NC(=O)c1ccc(C2CCCNC2)nc1 (stereo not drawn) | -4.69
106 | OCC1CCCCN1CCCNCc1cc(O)c2cc(F)ccc2n1 (stereo not drawn) | -4.1
107 | Cc1ccc2c(n1)N(CC(C)C)CCN(S(C)(=O)=O)C2 | -6.3
108 | CN(c1cccnn1)[C@@H]1CC[C@@H]2CN(Cc3cccc(C(=O)O)c3)C[C@@H]21 | -6.81
109 | CCOC(=O)CC(c1ccc(OC)c(OC)c1)c1c(O)n[nH]c1C (stereo not drawn) | -15.2
110 | Nc1nc2c(c(N3CCC(CN4CCCC4=O)CC3)n1)CCNCC2 | -8.27
111 | COc1ccc(CNC(=O)CN2CCc3ccccc32)cc1 | 27
112 | CN(C)c1ccc(C(=O)N2CCCC(n3cccn3)C2)nn1 (stereo not drawn) | -4.36
113 | N#Cc1ccc(C(=O)N2C[C@@H](CN3CCCC3)C[C@H](CO)C2)cc1 | -2.46
